# Like-named read-outs stand apart in the source and are kept apart here.
# Columns and labels:
# MCF7 = conditions: MCF7; NCI five dose
structure (smiles),measurement,setting,value
C=C1C(=O)O[C@H]2[C@H]1CC/C(COC(=O)c1cc3ccccc3[nH]1)=C\CC[C@@]1(C)O[C@@H]21 [BS-1-28],TGI,MCF7,1.39E−6
same,CC50,SK-MEL-2,7830 nM
same,Percent Growth,"SK-MEL-2; SK-MEL-2, Log10 Concentration −4.0",−88%
same,Percent Growth,"SK-MEL-2; SK-MEL-2, Log10 Concentration −5.0",−67%
same,Percent Growth,"SK-MEL-2; SK-MEL-2, Log10 Concentration −6.0",96%
same,Percent Growth,"SK-MEL-2; SK-MEL-2, Log10 Concentration −7.0",113%
same,Percent Growth,"SK-MEL-2; SK-MEL-2, Log10 Concentration −8.0",103%
same,GI50,"SK-MEL-2; SK-MEL-2, NCI five dose",1920 nM
same,TGI,"SK-MEL-2; SK-MEL-2, NCI five dose",3.88E−6
same,CC50,SNB-75,4720 nM
same,Percent Growth,"SNB-75; SNB-75, Log10 Concentration −4.0",−58%
same,Percent Growth,"SNB-75; SNB-75, Log10 Concentration −5.0",−98%
same,Percent Growth,"SNB-75; SNB-75, Log10 Concentration −6.0",50%
same,Percent Growth,"SNB-75; SNB-75, Log10 Concentration −7.0",77%
same,Percent Growth,"SNB-75; SNB-75, Log10 Concentration −8.0",72%
same,GI50,"SNB-75; SNB-75, NCI five dose",1010 nM
same,TGI,"SNB-75; SNB-75, NCI five dose",2.19E−6
same,CC50,MDA-MB-468,5170 nM
same,Percent Growth,"MDA-MB-468; MDA-MB-468, Log10 Concentration −4.0",−52%
same,Percent Growth,"MDA-MB-468; MDA-MB-468, Log10 Concentration −5.0",−71%
same,Percent Growth,"MDA-MB-468; MDA-MB-468, Log10 Concentration −6.0",3%
same,Percent Growth,"MDA-MB-468; MDA-MB-468, Log10 Concentration −7.0",95%
same,Percent Growth,"MDA-MB-468; MDA-MB-468, Log10 Concentration −8.0",76%
same,GI50,"MDA-MB-468; MDA-MB-468, NCI five dose",307 nM
same,TGI,"MDA-MB-468; MDA-MB-468, NCI five dose",1.10E−6
same,CC50,OVCAR-3,2660 nM
same,Percent Growth,"OVCAR-3; OVCAR-3, Log10 Concentration −4.0",−95%
same,Percent Growth,"OVCAR-3; OVCAR-3, Log10 Concentration −5.0",−92%
same,Percent Growth,"OVCAR-3; OVCAR-3, Log10 Concentration −6.0",−15%
same,Percent Growth,"OVCAR-3; OVCAR-3, Log10 Concentration −7.0",50%
same,Percent Growth,"OVCAR-3; OVCAR-3, Log10 Concentration −8.0",19%
same,TGI,"OVCAR-3; OVCAR-3, NCI five dose",5.92E−7
same,CC50,SK-MEL-5,5120 nM
same,Percent Growth,"SK-MEL-5; SK-MEL-5, Log10 Concentration −4.0",−95%
same,Percent Growth,"SK-MEL-5; SK-MEL-5, Log10 Concentration −5.0",−98%
same,Percent Growth,"SK-MEL-5; SK-MEL-5, Log10 Concentration −6.0",67%
same,Percent Growth,"SK-MEL-5; SK-MEL-5, Log10 Concentration −7.0",92%
same,Percent Growth,"SK-MEL-5; SK-MEL-5, Log10 Concentration −8.0",96%
same,GI50,"SK-MEL-5; SK-MEL-5, NCI five dose",1260 nM
same,TGI,"SK-MEL-5; SK-MEL-5, NCI five dose",2.54E−6
same,CC50,MOLT-4,> 100000 nM
same,Percent Growth,"MOLT-4; MOLT-4, Log10 Concentration −4.0",−32%
same,Percent Growth,"MOLT-4; MOLT-4, Log10 Concentration −5.0",−3%
same,Percent Growth,"MOLT-4; MOLT-4, Log10 Concentration −6.0",62%
same,Percent Growth,"MOLT-4; MOLT-4, Log10 Concentration −7.0",103%
same,Percent Growth,"MOLT-4; MOLT-4, Log10 Concentration −8.0",105%
same,GI50,"MOLT-4; MOLT-4, NCI five dose",1510 nM
same,TGI,"MOLT-4; MOLT-4, NCI five dose",8.89E−6
same,CC50,MDA-MB-435,5850 nM
same,Percent Growth,"MDA-MB-435; MDA-MB-435, Log10 Concentration −4.0",−96%
same,Percent Growth,"MDA-MB-435; MDA-MB-435, Log10 Concentration −5.0",−76%
same,Percent Growth,"MDA-MB-435; MDA-MB-435, Log10 Concentration −6.0",44%
same,Percent Growth,"MDA-MB-435; MDA-MB-435, Log10 Concentration −7.0",98%
same,Percent Growth,"MDA-MB-435; MDA-MB-435, Log10 Concentration −8.0",97%
same,GI50,"MDA-MB-435; MDA-MB-435, NCI five dose",763 nM
same,TGI,"MDA-MB-435; MDA-MB-435, NCI five dose",2.28E−6
same,CC50,HCC-2998,8770 nM
same,Percent Growth,"HCC-2998; HCC-2998, Log10 Concentration −4.0",−84%
same,Percent Growth,"HCC-2998; HCC-2998, Log10 Concentration −5.0",−59%
same,Percent Growth,"HCC-2998; HCC-2998, Log10 Concentration −6.0",104%
same,Percent Growth,"HCC-2998; HCC-2998, Log10 Concentration −7.0",104%
same,Percent Growth,"HCC-2998; HCC-2998, Log10 Concentration −8.0",103%
same,GI50,"HCC-2998; HCC-2998, NCI five dose",2140 nM
same,TGI,"HCC-2998; HCC-2998, NCI five dose",4.33E−6
same,CC50,RPMI-8226,> 100000 nM
same,Percent Growth,"RPMI-8226; RPMI-8226, Log10 Concentration −4.0",−34%
same,Percent Growth,"RPMI-8226; RPMI-8226, Log10 Concentration −5.0",−26%
same,Percent Growth,"RPMI-8226; RPMI-8226, Log10 Concentration −6.0",−8%
same,Percent Growth,"RPMI-8226; RPMI-8226, Log10 Concentration −7.0",92%
same,Percent Growth,"RPMI-8226; RPMI-8226, Log10 Concentration −8.0",97%
same,GI50,"RPMI-8226; RPMI-8226, NCI five dose",264 nM
same,TGI,"RPMI-8226; RPMI-8226, NCI five dose",8.27E−7

# From patent US9920063B2, “Melampomagnolide B derivatives” (Board of Trustees of the University of Arkansas, priority 2013, dated 2018)
